Earlier results in US7604671B2, “Perfumery for improved cold throw and burn in candle systems” (Givaudan Fragrances Corporation, priority 2004, dated 2009).

Settings: Randebrock 1986

In the case of `CCCCCCCCCCC=O` [1-undecanal], the “experimental value for odor detection threshold in air” value is given as 0.00054 mg/m^3.
